From patent US20160051533A1, “DIAGNOSIS AND PHARMACOLOGICAL TREATMENT OF SEASONAL AFFECTIVE DISORDER AND SYMPTOMS OF SEASONALITY” (Ladd Research LLC, priority 2014, published 2016)
Entries after “also recorded” stand apart in the source; their conditions may differ.

Experiments:
Wistar female rats [1] = assay: Forced swimming test (FST) in rats under shifted photoperiods
Experimental: Animals of CL and LL groups received the vehicles in the same conditions.
The same animals were tested by the same experimenter on the two FST sessions. The same proportion of animals of each group was tested by each experimenter.
The apparatus used for the experiment consisted of glass cylinders (64 cm high, 25 cm diameter) filled with 30 cm 25° C. water. The experiment was recorded with a camcorder, placed in front of the glass cylinder and connected to a screen, allowing the experimenter to watch the test online.
Light intensity was 15-20 Lux at the level of glass cylinders.
The behavior of the rat was measured on the second trial.
Behavior was classified as one of three behaviors: • 1) Immobility, defined as floating in the water without struggling and using only small movements to keep the head above water. • 2) Swimming, defined as moving limbs in an active manner, more than required to keep the head above water and causing movement among quadrants of the cylinder. • 3) Climbing, defined as making active movements with forepaws moving in and out of the water, usually directed against the side of the cylinder. Parameters analyzed were:
1) Imo=the immobility time.
2) Swm=the swimming time.
3) Clb=the climbing time.
A depressive-like profile is indicated by an increase of the immobility time and a decrease of either the swimming time or the climbing time. Conversely, an antidepressant-like effect is indicated by a decrease of the immobility time and an increase of either the swimming time or the climbing time.
(§1) A difference was considered: • 1) Statistically significant: p≦0.05. • 2) Close-to-significant difference: 0.05<p≦0.10. • 3) Not significant: p>0.10.

[2] = Body weight / growth rate in rats under shifted photoperiods; conditions: for Body weight in percent of initial body weight (d−4): short light (SL) rats, mean
Experimental: Rats were weighed three times a week in order to examine the effect of L/D changes and the effects of treatments on the body weight.
Animals' body weight was recorded three days per week. The body weight on day d-4 was considered as the initial body weight.
Initial body weight (BW) between recorded on day d-4, before the initiation of L/D change analyzed by 1-factor ANOVA and Student's t-test.
Therefore, the following analyses were performed on the BW expressed in percentage of the initial BW. • 2) Effect of L/D condition:
The BW expressed in percentage of the initial BW was compared between by ANOVA for repeated measures (from day dl to day d54): • a) On C-Veh, LL-Veh and SL-Veh groups: overall effect. • b) On C-Veh and LL-Veh groups: effect of LL. • c) On C-Veh and SL-Veh groups: effect of SL. • d) On LL-Veh and SL-Veh groups: difference LL vs. SL. • 3) Effect of vehicle:

OxR2 [3] = biological target: T1, OxR2 (Homo sapiens, UniProt O43614); conditions: cited from earlier work
T1 sequence (O43614 1-444): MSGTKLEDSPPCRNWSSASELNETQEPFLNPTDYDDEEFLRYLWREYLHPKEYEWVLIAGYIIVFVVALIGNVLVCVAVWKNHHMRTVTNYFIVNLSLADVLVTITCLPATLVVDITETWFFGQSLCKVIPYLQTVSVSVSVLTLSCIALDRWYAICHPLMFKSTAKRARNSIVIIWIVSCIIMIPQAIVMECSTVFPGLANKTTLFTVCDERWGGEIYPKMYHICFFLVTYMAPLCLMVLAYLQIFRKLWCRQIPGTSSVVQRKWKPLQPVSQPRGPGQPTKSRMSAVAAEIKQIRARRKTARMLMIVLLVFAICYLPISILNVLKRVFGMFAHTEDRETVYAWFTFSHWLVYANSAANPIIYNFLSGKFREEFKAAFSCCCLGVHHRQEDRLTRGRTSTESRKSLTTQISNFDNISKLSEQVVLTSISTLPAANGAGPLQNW

OxR2 [4] = biological target: T1, OxR2; conditions: over 4 hours; cited from earlier work
[5] = system: rat ventral tegmental area dopamine neurons; conditions: 1 micro molar of Almorexant; cited from earlier work
Wistar female rats [6] = assay: Marble burying test (MBT) in rats under shifted photoperiods
Experimental: The marble burying test can score the ability of rats to remove slight stressors, the marbles, from their environments.
Animals of LL-DMSO, LL-Wat, SL-DMSO, SL-Wat and SL-Almo groups were subjected to the marble burying test only once during the period of the study: at the 51st or 52nd days of treatment (see Table 2).
The experiment was conducted in twelve Plexiglas transparent open-boxes (42 cm L, 42 cm W, 40 cm H) filled with 5 cm sawdust. Twenty-five clean glass marbles (15 mm diameter) were evenly spaced 5 cm apart on sawdust. The number of marbles buried was counted at the end of the session.
Light intensity was 30 Lux at the center of the open-boxes.
Animals were individually placed for a 5-min session in the experimental apparatus.
The number of marbles was counted at the end of the session: • 1) Number of marbles not buried. • 2) Number of marbles ⅓ buried. • 3) Number of marbles ⅔ buried. • 4) Number of marbles totally buried.
Parameters analyzed were: • 1) Unburied=the number of marbles not buried. • 2) ≧⅔ buried=number of marbles ⅔ buried+number of marbles totally buried • 3) Tot buried=number of marbles totally buried.

Wistar female rats [7] = assay: Elevated-plus maze (EPM) test in rats under shifted photoperiods
Text: Animals were subjected to the elevated-plus maze (EPM) test only once during the period of the study: at the 43th, 44th or 45th days of treatment (see Table 2).
The apparatus consisted of a plus-shaped maze, elevated 50 cm from the floor, with two opposite open arms, 50×10 cm, crossed at right angles by two arms of the same dimensions, but enclosed by 40-cm-high black opaque walls with an open roof. In addition a 1-cm-high edge made of Plexiglas surrounded the open arms to avoid falls.
Light intensity was 10 Lux at the level of open arms.
The experiment was recorded with a camcorder, placed 1.5 m above the maze and connected to a screen, allowing the experimenter to watch the test online.
Animals were individually placed for a 5-min session in the center of the plus-maze. The number of arm entries and the time spent in arms were recorded. An arm entry is defined as all four paws into the arm.
Other parameters were recorded: the time spent in open arms, the number of open arm entries, the time spent in enclosed arms, the number of enclosed arm entries and the time spent in the center of the maze.
1) Enclosed arm entries: entries into the protected arms of the EPM
as §1

Wistar female rats [8] = assay: Open-field test (OFT) in rats under shifted photoperiods; conditions: OFT first session; for effect on the Distance: 100 mg/kg
Experimental: Activity was tested in open boxes (open-fields: 100 cm wide, 100 cm long, 50 cm high) made of PVC. Animals' activity was recorded by an electronic videotracking detection system (Viewpoint, France) allowing to detect the distance travelled and the time spent in different parts of the open-field.
Light intensity was 7-10 Lux at the center of the open-fields.
Animals were individually placed for a 10-min session in the center of one quadrant of the open-field.
Parameters analyzed were: • 1) One parameter taken as an index of locomotor-exploratory behavior: • The distance travelled in the open-field. • 2) Two parameters taken as indices of anxiety behavior: • a) % Dist Cent=the percentage of distance travelled in the central 60×60 cm area of the open-field. • b) % Time cent=the percentage of time spent in the central 60×60 cm area of the open-field.
as §1

OxR2 [9] = biological target: T1, OxR2; conditions: read-out: Human OxR2 FLIPR; cited from earlier work
rat OxR1 = biological target: T2, rat OxR1 (Rattus norvegicus, UniProt P56718); conditions: rat OxR1 cell cultures, t=30 min to t=4 hours; cited from earlier work
T2 sequence (P56718 1-416): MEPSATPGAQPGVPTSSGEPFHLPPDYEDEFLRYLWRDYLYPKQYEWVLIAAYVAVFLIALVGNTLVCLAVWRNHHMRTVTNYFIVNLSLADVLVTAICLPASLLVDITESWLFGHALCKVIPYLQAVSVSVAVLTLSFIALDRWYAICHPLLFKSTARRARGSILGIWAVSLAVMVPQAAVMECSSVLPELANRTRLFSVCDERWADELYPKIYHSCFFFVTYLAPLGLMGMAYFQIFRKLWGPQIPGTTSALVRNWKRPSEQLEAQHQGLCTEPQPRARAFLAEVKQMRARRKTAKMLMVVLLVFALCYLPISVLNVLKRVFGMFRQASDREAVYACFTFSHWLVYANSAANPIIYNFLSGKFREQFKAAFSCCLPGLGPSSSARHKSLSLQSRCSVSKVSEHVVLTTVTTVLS

recombinant human OxR1 = biological target: T3, recombinant human OxR1 (Homo sapiens, UniProt O43613); conditions: cited from earlier work
T3 sequence (O43613 1-425): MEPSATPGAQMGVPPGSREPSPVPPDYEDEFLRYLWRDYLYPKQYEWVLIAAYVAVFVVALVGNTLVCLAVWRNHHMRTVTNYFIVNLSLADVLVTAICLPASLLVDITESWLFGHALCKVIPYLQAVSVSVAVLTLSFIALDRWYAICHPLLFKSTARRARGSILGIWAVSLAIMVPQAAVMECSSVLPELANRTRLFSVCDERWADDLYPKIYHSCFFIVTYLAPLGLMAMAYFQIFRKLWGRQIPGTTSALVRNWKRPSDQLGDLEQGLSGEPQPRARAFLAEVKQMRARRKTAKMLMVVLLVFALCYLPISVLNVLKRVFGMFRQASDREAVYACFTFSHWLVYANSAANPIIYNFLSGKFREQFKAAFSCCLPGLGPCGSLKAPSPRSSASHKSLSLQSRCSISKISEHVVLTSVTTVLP

OxR2 [10] = biological target: T1, OxR2; conditions: cited from earlier work; remark: listed apart in the source
[11] = FST second session, SL-Almo vs SL-Wat, 100 mg/kg PO, 100 mg/kg
[12] = FST second session, short light (SL) rats, group mean
[13] = MBT reanalysis, SL rats, almorexant
[14] = MBT, SL-Almo vs SL-Wat, 100 mg/kg PO
[15] = MBT, short light (SL) rats, group mean
[16] = EPM, SL-Almo vs SL-Wat, 100 mg/kg PO, 100 mg/kg
[17] = EPM, short light (SL) rats, group mean, water vehicle comparison groups
[18] = SL-Almo vs SL-Wat, 100 mg/kg PO
[19] = Short Light rats, Almorexant 100 mg/kg PO daily, group mean

## CNC(=O)[C@@H](c1ccccc1)N1CCc2cc(OC)c(OC)cc2[C@@H]1CCc1ccc(C(F)(F)F)cc1.Cl [Almorexant HCl]
Wistar female rats [1]; FST second session, SL-Almo vs SL-Wat, 100 mg/kg PO
  effect on the swimming time (Swm): Did not significantly modify
Wistar female rats [1]; [11]
  effect on the climbing time (Clb): increased; also recorded: Tended to increase
  effect on the immobility time (Imo): Decreased
Wistar female rats [1]; FST second session, almorexant 100 mg/kg PO
  antidepressant-like effect: induced an antidepressant-like effect
Wistar female rats [1]; [12]
  Immobility time (Imo): 111.5 s
  climbing time (Clb): 68.7 s
  percentage swimming time (Swim): 119.8 s
Wistar female rats [1]; double blind reanalysis of video, SL-Almo vs SL-Veh
  FST 2 binned climbing time (FIG. 13): statistically significant anti-depressant and anti-despair effect
[2]; SL-Almo vs SL-Veh, OG (FIG. 30)
  growth rate: consistently found to increase growth rate back to LL levels
[2]; SL-Almo vs SL-Wat, d29 to d54, 100 mg/kg PO
  body weight (BW, percent of initial BW): increased the BW
[2]; d29-t1, during treatment
  Body weight in percent of initial body weight (d−4): 164.4%
[2]; d31-t3, during treatment
  Body weight in percent of initial body weight (d−4): 167.0%
[2]; d33-t5, during treatment
  Body weight in percent of initial body weight (d−4): 168.8%
[2]; d36-t8, during treatment
  Body weight in percent of initial body weight (d−4): 173.4%
[2]; d38-t10, during treatment
  Body weight in percent of initial body weight (d−4): 175.5%
[2]; d40-t12, during treatment
  Body weight in percent of initial body weight (d−4): 176.6%
[2]; d43-t15, during treatment
  Body weight in percent of initial body weight (d−4): 179.7%
[2]; d45-t17, during treatment
  Body weight in percent of initial body weight (d−4): 181.7%
[2]; d47-t19, during treatment
  Body weight in percent of initial body weight (d−4): 183.5%
[2]; d50-t22, during treatment
  Body weight in percent of initial body weight (d−4): 185.5%
[2]; d52-t24, during treatment
  Body weight in percent of initial body weight (d−4): 187.5%
[2]; d54-t26, during treatment
  Body weight in percent of initial body weight (d−4): 187.0%
OxR2 [3]; [3H] Almorexant, human OxR2
  Kd: 0.17 nM
OxR2 [3]
  classification of antagonism at hOxR2: non-competitive antagonist
OxR2 [4]
  change of OxR2 Ki over time: decrease over 4 hours
[5]
  block of the effect of orexin A on firing: completely block the effect of orexin A
Wistar female rats [6]; [13]
  marbles greater than ⅓ buried (FIG. 20): treated with statistical significance
  marbles ⅓ buried (FIG. 22): treated statistically significantly
  marbles ⅓ or less buried (FIG. 21): treated with statistical significance
Wistar female rats [6]; [14]
  unburied marbles: Reduced the increase
  ≧⅔ buried marbles: Reduced the decrease
Wistar female rats [6]; [15]
  Number of unburied marbles: 5.3
  number of totally buried: 8.9
  number of ≧⅔ buried marbles: 16.3
Wistar female rats [7]; EPM reanalysis, OG almorexant
  SL-increased anxiety-like behaviors (FIG. 10, enclosed arms): treated with statistical significance
Wistar female rats [7]; [16]
  effect on the % OAE: no significant effect; also recorded: Did not significantly modify
  effect on the % TOA: no significant effect; also recorded: Did not significantly modify
  effect on the AE: increased; also recorded: Tended to increase
Wistar female rats [7]; EPM, almorexant 100 mg/kg PO
  anxiety-like behavior: did not induce effect
  motor exploratory activity: increased
Wistar female rats [7]; [17]
  Number of arm entries (AE): 23.8
  Percentage of open arm entries (% OAE): 38.1%
  Percentage of time spent in open arms (% TOA): 34.9%
Wistar female rats [8]; [18]
  effect on the % Dist Center: Did not significantly modify
  effect on the % Time Center: Did not significantly modify
Wistar female rats [8]; SL-Almo vs SL-Wat, 100 mg/kg PO, listed as Almorexant
  effect on the Distance: Tended to reduce the decrease in mobility caused by the SL
Wistar female rats [8]; SL-Almo vs SL-Wat, 100 mg/kg PO, listed as almorexant
  effect on the Distance: Did not significantly modify
Wistar female rats [8]; [19]
  % Dist Cent: 9.9%
  % Time Cent: 6.7%
  Distance travelled: 8786.5 cm
Wistar female rats [8]; almorexant 100 mg/kg PO
  anxiety-like behavior: did not induce effect
  motor exploratory activity: did not modify
OxR2 [9]
  IC50: 15.6 nM
Rat OxR1
  change of Ki over time: remains relatively unchanged
Recombinant human OxR1
  binding and dissociation rates at hOxR1: fast binding and dissociation rates
  classification of antagonism at hOxR1: competitive antagonist
OxR2 [10]
  Ki: 0.9 nM
